Test results taken from US20250129062A1, “AMORPHOUS SUBSTANCES, CRYSTALS, PHARMACEUTICAL COMPOSITIONS, PREPARATION METHODS AND USES OF THIOHYDANTOIN COMPOUND OR PHARMACEUTICALLY ACCEPTABLE SALT THEREOF” (SUZHOU KINTOR PHARMACEUTICALS, INC., priority 2021, published 2025).
In brackets after ≈: the same amount, converted by molar mass. Where two headings read alike, the source gives them in different places.

Assay: Solubility of amorphous substance in solvent systems (supersaturated solution, oscillated 24 h at room temperature, HPLC)
Assay type: physicochemical
Conditions: for solubility at 24 h: thermodynamic from solid
Method: The amorphous substance of the compound of formula I was prepared into supersaturated solutions with different solvents, and oscillated under a room temperature condition (a constant temperature). After oscillating for 24 h, sampling was performed, and the content of the sample was detected by HPLC under condition 1.
Condition 1: • Chromatographic column: C18 (150 mm×4.6 mm×3.5 μm); • Mobile phase: binary mobile phase system, mobile phase A was 0.1% formic acid in water, mobile phase B was acetonitrile; • Elution time: 68 min; • Elution mode: gradient elution (in the gradient elution process, mobile phase A had the maximum volume percentage of 95% and the minimum volume percentage of 10%); • Detection wavelength: 270 nm.

## Cc1ncsc1-c1ccc(CNC(=O)[C@@H]2C[C@@H](O)CN2C(=O)[C@@H](NC(=O)COCCCCOc2ccc(-c3ccc(N4C(=S)N(c5ccc(C#N)c(C(F)(F)F)c5F)C(=O)C4(C)C)cn3)cc2)C(C)(C)C)cc1
Dehydrated alcohol-propylene glycol-water solvent mixture, aqueous with cosolvent or surfactant or cyclodextrin, Dehydrated alcohol 30%-propylene glycol 40%-water 30% (w/w), read-out: Solubility
  solubility at 24 h: 25.2 mg/mL (≈ 24.2 mM)
Dehydrated alcohol-propylene glycol-water solvent mixture, aqueous with cosolvent or surfactant or cyclodextrin, Dehydrated alcohol 30%-propylene glycol 50%-water 20% (w/w), read-out: Solubility
  solubility at 24 h: > 178 mg/mL
Dehydrated alcohol-propylene glycol-water solvent mixture, aqueous with cosolvent or surfactant or cyclodextrin, Dehydrated alcohol 35%-propylene glycol 35%-water 30% (w/w), read-out: Solubility
  solubility at 24 h: 52.3 mg/mL (≈ 50.1 mM)
Dehydrated alcohol-propylene glycol-water solvent mixture, aqueous with cosolvent or surfactant or cyclodextrin, Dehydrated alcohol 35%-propylene glycol 40%-water 25% (w/w), read-out: Solubility
  solubility at 24 h: 62.7 mg/mL (≈ 60.1 mM)
Dehydrated alcohol-propylene glycol-water solvent mixture, aqueous with cosolvent or surfactant or cyclodextrin, Dehydrated alcohol 35%-propylene glycol 50%-water 15% (w/w), read-out: Solubility
  solubility at 24 h: > 189 mg/mL
Dehydrated alcohol-propylene glycol-water solvent mixture, aqueous with cosolvent or surfactant or cyclodextrin, Dehydrated alcohol 40%-propylene glycol 10%-water 50% (w/w), read-out: Solubility
  solubility at 24 h: 3.02 mg/mL (≈ 2.89 mM)
Dehydrated alcohol-propylene glycol-water solvent mixture, aqueous with cosolvent or surfactant or cyclodextrin, Dehydrated alcohol 40%-propylene glycol 20%-water 40% (w/w), read-out: Solubility
  solubility at 24 h: 19.5 mg/mL (≈ 18.7 mM)
Dehydrated alcohol-propylene glycol-water solvent mixture, aqueous with cosolvent or surfactant or cyclodextrin, Dehydrated alcohol 40%-propylene glycol 30%-water 30% (w/w), read-out: Solubility
  solubility at 24 h: 49.8 mg/mL (≈ 47.7 mM)
Dehydrated alcohol-propylene glycol-water solvent mixture, aqueous with cosolvent or surfactant or cyclodextrin, Dehydrated alcohol 40%-propylene glycol 40%-water 20% (w/w), read-out: Solubility
  solubility at 24 h: > 97.5 mg/mL
Dehydrated alcohol-propylene glycol-water solvent mixture, aqueous with cosolvent or surfactant or cyclodextrin, Dehydrated alcohol 50%-propylene glycol 10%-water 40% (w/w), read-out: Solubility
  solubility at 24 h: 77.7 mg/mL (≈ 74.5 mM)
Dehydrated alcohol-propylene glycol-water solvent mixture, aqueous with cosolvent or surfactant or cyclodextrin, Dehydrated alcohol 50%-propylene glycol 20%-water 30% (w/w), read-out: Solubility
  solubility at 24 h: > 77.5 mg/mL
Dehydrated alcohol-propylene glycol-water solvent mixture, aqueous with cosolvent or surfactant or cyclodextrin, Dehydrated alcohol 50%-propylene glycol 30%-water 20% (w/w), read-out: Solubility
  solubility at 24 h: > 69.3 mg/mL
Dehydrated alcohol-propylene glycol-water solvent mixture, aqueous with cosolvent or surfactant or cyclodextrin, Dehydrated alcohol 50%-propylene glycol 40%-water 10% (w/w), read-out: Solubility
  solubility at 24 h: > 67.8 mg/mL
Dehydrated alcohol-propylene glycol-water solvent mixture, organic solvent or mixture, Dehydrated alcohol 50%-propylene glycol 50%-water 00% (w/w), read-out: Solubility
  solubility at 24 h: > 96 mg/mL
glycerin, organic solvent or mixture, solvent: Glycerin, read-out: 24 h solubility
  solubility at 24 h: 0.44 mg/mL (≈ 0.422 mM)
Liquid paraffin, oil or lipid, solvent: Liquid paraffin, read-out: 24 h solubility
  solubility at 24 h: 0.01 mg/mL (≈ 0.00959 mM)
Oleic acid, oil or lipid, solvent: Oleic acid, read-out: 24 h solubility
  solubility at 24 h: 1.41 mg/mL (≈ 1.35 mM)
Polyethylene glycol 400 (PEG400), organic solvent or mixture, solvent: Polyethylene glycol 400 (PEG400), read-out: 24 h solubility
  solubility at 24 h: 16 mg/mL (≈ 15.4 mM)
Propylene glycol, organic solvent or mixture, solvent: Propylene glycol, read-out: 24 h solubility
  solubility at 24 h: 12 mg/mL (≈ 11.5 mM)
Solvent mixture, aqueous with cosolvent or surfactant or cyclodextrin, Dehydrated alcohol 10%-PEG400 30%-water 60% (w/w), read-out: Solubility
  solubility at 24 h: 0.06 mg/mL (≈ 0.0575 mM)
Solvent mixture, aqueous with cosolvent or surfactant or cyclodextrin, Dehydrated alcohol 10%-PEG400 40%-water 50% (w/w), read-out: Solubility
  solubility at 24 h: 0.28 mg/mL (≈ 0.268 mM)
Solvent mixture, aqueous with cosolvent or surfactant or cyclodextrin, Dehydrated alcohol 10%-glycerin 10%-water 80% (w/w), read-out: Solubility
  solubility at 24 h: < 0.1 mg/mL
Solvent mixture, aqueous with cosolvent or surfactant or cyclodextrin, Dehydrated alcohol 10%-glycerin 20%-water 70% (w/w), read-out: Solubility
  solubility at 24 h: < 0.1 mg/mL
Solvent mixture, aqueous with cosolvent or surfactant or cyclodextrin, Dehydrated alcohol 10%-glycerin 30%-water 60% (w/w), read-out: Solubility
  solubility at 24 h: < 0.1 mg/mL
Solvent mixture, aqueous with cosolvent or surfactant or cyclodextrin, Dehydrated alcohol 20%-glycerin 10%-water 70% (w/w), read-out: Solubility
  solubility at 24 h: < 0.1 mg/mL
Solvent mixture, aqueous with cosolvent or surfactant or cyclodextrin, Dehydrated alcohol 20%-glycerin 20%-water 60% (w/w), read-out: Solubility
  solubility at 24 h: < 0.1 mg/mL
Solvent mixture, aqueous with cosolvent or surfactant or cyclodextrin, Dehydrated alcohol 20%-glycerin 30%-water 50% (w/w), read-out: Solubility
  solubility at 24 h: < 0.1 mg/mL
Solvent mixture, aqueous with cosolvent or surfactant or cyclodextrin, Dehydrated alcohol 20%-glycerin 40%-water 40% (w/w), read-out: Solubility
  solubility at 24 h: < 0.1 mg/mL
Solvent mixture, aqueous with cosolvent or surfactant or cyclodextrin, Dehydrated alcohol 20%-glycerin 50%-water 30% (w/w), read-out: Solubility
  solubility at 24 h: < 0.1 mg/mL
Solvent mixture, aqueous with cosolvent or surfactant or cyclodextrin, Dehydrated alcohol 30%-glycerin 10%-water 60% (w/w), read-out: Solubility
  solubility at 24 h: 0.08 mg/mL (≈ 0.0767 mM)
Solvent mixture, aqueous with cosolvent or surfactant or cyclodextrin, Dehydrated alcohol 30%-glycerin 20%-water 50% (w/w), read-out: Solubility
  solubility at 24 h: 0.14 mg/mL (≈ 0.134 mM)
Solvent mixture, aqueous with cosolvent or surfactant or cyclodextrin, Dehydrated alcohol 30%-glycerin 30%-water 40% (w/w), read-out: Solubility
  solubility at 24 h: 0.65 mg/mL (≈ 0.623 mM)
Solvent mixture, aqueous with cosolvent or surfactant or cyclodextrin, Dehydrated alcohol 30%-glycerin 40%-water 30% (w/w), read-out: Solubility
  solubility at 24 h: 2.26 mg/mL (≈ 2.17 mM)
Solvent mixture, aqueous with cosolvent or surfactant or cyclodextrin, Dehydrated alcohol 30%-glycerin 50%-water 20% (w/w), read-out: Solubility
  solubility at 24 h: 4.08 mg/mL (≈ 3.91 mM)
Solvent mixture, aqueous with cosolvent or surfactant or cyclodextrin, Dehydrated alcohol 40%-glycerin 10%-water 50% (w/w), read-out: Solubility
  solubility at 24 h: 1.58 mg/mL (≈ 1.51 mM)
Solvent mixture, aqueous with cosolvent or surfactant or cyclodextrin, Dehydrated alcohol 40%-glycerin 20%-water 40% (w/w), read-out: Solubility
  solubility at 24 h: 3.4 mg/mL (≈ 3.26 mM)
Solvent mixture, aqueous with cosolvent or surfactant or cyclodextrin, Dehydrated alcohol 40%-glycerin 30%-water 30% (w/w), read-out: Solubility
  solubility at 24 h: 8.84 mg/mL (≈ 8.47 mM)
Solvent mixture, aqueous with cosolvent or surfactant or cyclodextrin, Dehydrated alcohol 40%-glycerin 40%-water 20% (w/w), read-out: Solubility
  solubility at 24 h: 14.7 mg/mL (≈ 14.1 mM)
Solvent mixture, aqueous with cosolvent or surfactant or cyclodextrin, Dehydrated alcohol 40%-glycerin 50%-water 10% (w/w), read-out: Solubility
  solubility at 24 h: 40 mg/mL (≈ 38.4 mM)
Solvent mixture, aqueous with cosolvent or surfactant or cyclodextrin, Dehydrated alcohol 50%-PEG400 10%-water 40% (w/w), read-out: Solubility
  solubility at 24 h: 25.1 mg/mL (≈ 24.1 mM)
Solvent mixture, aqueous with cosolvent or surfactant or cyclodextrin, Dehydrated alcohol 50%-PEG400 20%-water 30% (w/w), read-out: Solubility
  solubility at 24 h: > 51.5 mg/mL
Solvent mixture, aqueous with cosolvent or surfactant or cyclodextrin, Dehydrated alcohol 50%-glycerin 10%-water 40% (w/w), read-out: Solubility
  solubility at 24 h: 15.2 mg/mL (≈ 14.5 mM)
Solvent mixture, aqueous with cosolvent or surfactant or cyclodextrin, Dehydrated alcohol 50%-glycerin 20%-water 30% (w/w), read-out: Solubility
  solubility at 24 h: 23.9 mg/mL (≈ 22.9 mM)
Solvent mixture, aqueous with cosolvent or surfactant or cyclodextrin, Dehydrated alcohol 50%-glycerin 30%-water 20% (w/w), read-out: Solubility
  solubility at 24 h: > 43.6 mg/mL
Solvent mixture, aqueous with cosolvent or surfactant or cyclodextrin, Dehydrated alcohol 50%-glycerin 40%-water 10% (w/w), read-out: Solubility
  solubility at 24 h: > 64.6 mg/mL
Solvent mixture, organic solvent or mixture, Dehydrated alcohol 50%-glycerin 50%-water 00% (w/w), read-out: Solubility
  solubility at 24 h: > 74.1 mg/mL
solvent: Dehydrated alcohol
  24 h solubility: >54.48 mg/mL
solvent: Liquid paraffin, listed as amorphous substance of the compound of formula I
  24 h solubility: extremely low
solvent: Water, listed as amorphous substance of the compound of formula I
  24 h solubility: basically insoluble
